Test results published in ChEMBL document CHEMBL1201862, “PubChem BioAssay data set” (2004).
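Interpolation was linear, between the two tested concentrations surrounding the appropriate level; five concentrations were tested over 48 hours in 96-well plates. GI50: concentration for 50% inhibition of growth.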 Active and inactive are the calls of the source. Cut-off read from the data, not from the text of the source: active = GI50 up to about 1.1 µM and inactive = higher.

Tests used:
Test in all cases: NCI anticancer screen, dose series, 48 h
MOLT-4 = tested on: MOLT-4
HCC 2998 = tested on: HCC 2998
ACHN = tested on: ACHN
UO-31 = tested on: UO-31
HCT-15 = tested on: HCT-15
NCI-H226 = tested on: NCI-H226
UACC-62 = tested on: UACC-62
OVCAR-8 = tested on: OVCAR-8
TK-10 = tested on: TK-10
SK-MEL-5 = tested on: SK-MEL-5
RPMI-8226 = tested on: RPMI-8226
SN12C = tested on: SN12C
NCI-H460 = tested on: NCI-H460
SR = tested on: SR
NCI-H23 = tested on: NCI-H23
U-251 = tested on: U-251
MCF7 = tested on: MCF7
MDA-MB-435 = tested on: MDA-MB-435
786-0 = tested on: 786-0
A498 = tested on: A498

Row | Compound | GI50 (MOLT-4) | GI50 (HCC 2998) | GI50 (ACHN) | GI50 (UO-31) | GI50 (HCT-15) [µM] | GI50 (NCI-H226) | GI50 (UACC-62) | GI50 (OVCAR-8) | GI50 (TK-10) | GI50 (SK-MEL-5) | GI50 (RPMI-8226) | GI50 (SN12C) | GI50 (NCI-H460) | GI50 (SR) | GI50 (NCI-H23) | GI50 (U-251) | GI50 (MCF7) | GI50 (MDA-MB-435) | GI50 (786-0) | GI50 (A498)
1 | N#CCC(=O)Nn1c(CC#N)nnc1Cc1ccccc1 | > 100 µM (inactive) | > 100 µM (inactive) | > 100 µM (inactive) | > 100 µM (inactive) | > 100 | > 100 µM (inactive) | > 100 µM (inactive) | > 100 µM (inactive) | > 100 µM (inactive) | > 100 µM (inactive) | > 100 µM (inactive) | > 10 µM (inactive) | > 100 µM (inactive) | > 100 µM (inactive) | > 100 µM (inactive) | > 100 µM (inactive) | > 100 µM (inactive) | > 100 µM (inactive) | > 100 µM (inactive) | –
2 | CC(=O)Oc1cc(Cl)c(C)c2c1[C@H]1CC[C@]3(C)[C@@H](OC(C)=O)CC[C@H]3[C@@H]1CC2 | 78.2 µM (inactive) | > 100 µM (inactive) | > 100 µM (inactive) | > 100 µM (inactive) | 50.4 | > 100 µM (inactive) | 35 µM (inactive) | > 100 µM (inactive) | > 100 µM (inactive) | > 100 µM (inactive) | 29.5 µM (inactive) | > 100 µM (inactive) | > 100 µM (inactive) | – | > 100 µM (inactive) | 94.2 µM (inactive) | 83.4 µM (inactive) | > 100 µM (inactive) | > 100 µM (inactive) | > 100 µM (inactive)
3 | CC(=O)N1CC(C)(C)c2c(C)c(O)c(C)c(C)c21 | > 100 µM (inactive) | > 100 µM (inactive) | > 100 µM (inactive) | > 100 µM (inactive) | > 100 | > 100 µM (inactive) | > 100 µM (inactive) | > 100 µM (inactive) | > 100 µM (inactive) | > 100 µM (inactive) | > 100 µM (inactive) | > 100 µM (inactive) | > 100 µM (inactive) | – | > 100 µM (inactive) | > 100 µM (inactive) | > 100 µM (inactive) | > 100 µM (inactive) | > 100 µM (inactive) | > 100 µM (inactive)
4 | CC(C)N(C(C)C)S(=O)(=O)CC12CCC(C/C1=N\O)C2 (configuration not stated) | > 100 µM (inactive) | > 100 µM (inactive) | > 100 µM (inactive) | > 100 µM (inactive) | > 100 | > 100 µM (inactive) | > 100 µM (inactive) | > 100 µM (inactive) | > 100 µM (inactive) | > 100 µM (inactive) | – | > 100 µM (inactive) | > 100 µM (inactive) | > 100 µM (inactive) | > 100 µM (inactive) | > 100 µM (inactive) | > 100 µM (inactive) | > 100 µM (inactive) | > 100 µM (inactive) | –
5 | O=C(O)CN(CC(=O)O)Cc1ccn(-c2cccc(-n3ccc(CN(CC(=O)O)CC(=O)O)n3)n2)n1 | > 100 µM (inactive) | > 100 µM (inactive) | > 100 µM (inactive) | 93.8 µM (inactive) | > 100 | > 100 µM (inactive) | > 100 µM (inactive) | > 100 µM (inactive) | > 100 µM (inactive) | > 100 µM (inactive) | > 100 µM (inactive) | > 100 µM (inactive) | > 100 µM (inactive) | > 100 µM (inactive) | < 0.01 µM (active) | 21.1 µM (inactive) | > 100 µM (inactive) | 3.53 µM (inactive) | > 100 µM (inactive) | –
6 | CC(CO)CCNc1ncnc2c1ncn2CCC(=O)O (configuration not stated) | > 100 µM (inactive) | – | > 100 µM (inactive) | > 100 µM (inactive) | – | > 100 µM (inactive) | > 100 µM (inactive) | > 100 µM (inactive) | > 100 µM (inactive) | > 100 µM (inactive) | > 100 µM (inactive) | > 100 µM (inactive) | > 100 µM (inactive) | > 100 µM (inactive) | > 100 µM (inactive) | – | > 100 µM (inactive) | > 100 µM (inactive) | > 100 µM (inactive) | > 100 µM (inactive)
7 | CCCCCCCCCCCCCCCCNc1ccc2c(c1)OCCOCCOCCOCCO2 | 2.5 µM (inactive) | 4.03 µM (inactive) | 3.05 µM (inactive) | 2.77 µM (inactive) | 2.88 | 1.77 µM (inactive) | 2.97 µM (inactive) | 2.68 µM (inactive) | 11.7 µM (inactive) | 2.25 µM (inactive) | 1.67 µM (inactive) | 2.92 µM (inactive) | 3.1 µM (inactive) | 3.29 µM (inactive) | 3.62 µM (inactive) | 2.49 µM (inactive) | 3.61 µM (inactive) | 3.17 µM (inactive) | 3.64 µM (inactive) | –
8 | COC(=O)c1ccccc1C1CN=NC12Cc1c(C)cc(C)cc1C2=O (configuration not stated) | > 100 µM (inactive) | > 100 µM (inactive) | > 100 µM (inactive) | > 100 µM (inactive) | > 100 | > 100 µM (inactive) | > 100 µM (inactive) | > 100 µM (inactive) | > 100 µM (inactive) | > 100 µM (inactive) | – | > 100 µM (inactive) | > 100 µM (inactive) | – | > 100 µM (inactive) | > 100 µM (inactive) | > 100 µM (inactive) | > 100 µM (inactive) | > 100 µM (inactive) | > 100 µM (inactive)
9 | NC(=S)N/N=C1\NC(=O)/C(=C/c2ccc3c(c2)OCO3)S1 | 21.4 µM (inactive) | 33.7 µM (inactive) | 32.1 µM (inactive) | 30.1 µM (inactive) | 26.7 | 23.5 µM (inactive) | – | 24.8 µM (inactive) | 40.8 µM (inactive) | 16.3 µM (inactive) | – | 36.7 µM (inactive) | 30.8 µM (inactive) | – | 22.9 µM (inactive) | 22.6 µM (inactive) | 32.7 µM (inactive) | 27.1 µM (inactive) | 33.9 µM (inactive) | 14.3 µM (inactive)
10 | CCOC(=O)C1C[C@H]2CO[C@H](c3ccccc3)N2C1=O (some centres not stated) | > 100 µM (inactive) | 73.8 µM (inactive) | > 100 µM (inactive) | > 100 µM (inactive) | > 100 | > 100 µM (inactive) | > 100 µM (inactive) | > 100 µM (inactive) | > 100 µM (inactive) | > 100 µM (inactive) | > 100 µM (inactive) | > 100 µM (inactive) | > 100 µM (inactive) | > 100 µM (inactive) | > 100 µM (inactive) | > 100 µM (inactive) | > 100 µM (inactive) | > 100 µM (inactive) | > 100 µM (inactive) | –
11 | N#CI1OC(C(F)(F)F)(C(F)(F)F)c2ccccc21 | – | 20 µM (inactive) | 18.2 µM (inactive) | 14.6 µM (inactive) | 15.1 | 17.8 µM (inactive) | 18.4 µM (inactive) | 16.3 µM (inactive) | 19 µM (inactive) | 17.5 µM (inactive) | 29.3 µM (inactive) | 23.1 µM (inactive) | 24.8 µM (inactive) | – | 18.6 µM (inactive) | 21.2 µM (inactive) | 18.9 µM (inactive) | 17.8 µM (inactive) | 14.2 µM (inactive) | 37.4 µM (inactive)
12 | O=C1c2[nH]c3ccccc3c2CCN2CCCCC12 (configuration not stated) | 17.3 µM (inactive) | 17.2 µM (inactive) | 21.9 µM (inactive) | – | 31.9 | 27.8 µM (inactive) | 18.8 µM (inactive) | 25.2 µM (inactive) | 27 µM (inactive) | – | 17.7 µM (inactive) | 35.6 µM (inactive) | 26.6 µM (inactive) | – | 21.8 µM (inactive) | 18.8 µM (inactive) | 32.1 µM (inactive) | 16.7 µM (inactive) | 24 µM (inactive) | 29.6 µM (inactive)
13 | O=C1CSC(c2c[nH]c3ccccc23)N1c1ccccc1[N+](=O)[O-] (configuration not stated) | > 100 µM (inactive) | > 100 µM (inactive) | – | > 100 µM (inactive) | > 100 | – | > 100 µM (inactive) | > 100 µM (inactive) | > 100 µM (inactive) | > 100 µM (inactive) | > 100 µM (inactive) | > 100 µM (inactive) | > 100 µM (inactive) | > 100 µM (inactive) | > 100 µM (inactive) | > 100 µM (inactive) | > 100 µM (inactive) | > 100 µM (inactive) | > 100 µM (inactive) | –
14 | N=c1oc2cc(O)ccc2cc1C(=O)Nc1ccccn1 | 1.78 µM (inactive) | 34.3 µM (inactive) | 23.4 µM (inactive) | 0.292 µM (active) | 51.5 | 90.6 µM (inactive) | 32.4 µM (inactive) | 32.2 µM (inactive) | 41.9 µM (inactive) | 42.3 µM (inactive) | 33.7 µM (inactive) | 62.2 µM (inactive) | 62.8 µM (inactive) | – | 80.9 µM (inactive) | 44.5 µM (inactive) | 14.9 µM (inactive) | 44.5 µM (inactive) | 16.4 µM (inactive) | 24.7 µM (inactive)
15 | O=C1c2cscc2C(=O)c2c(OCc3ccccc3)ccc(OCc3ccccc3)c21 | > 100 µM (inactive) | 53.1 µM (inactive) | > 100 µM (inactive) | 62.5 µM (inactive) | – | > 100 µM (inactive) | > 100 µM (inactive) | > 100 µM (inactive) | > 100 µM (inactive) | > 100 µM (inactive) | > 100 µM (inactive) | > 100 µM (inactive) | > 100 µM (inactive) | 54 µM (inactive) | > 100 µM (inactive) | – | > 100 µM (inactive) | > 100 µM (inactive) | 58.2 µM (inactive) | –
